Results published in patent US20250000908A1, “METHODS FOR PREPARING AND ADMINISTERING CRYOPRESERVED PLATELETS AND PLATELET DERIVATIVES LOADED WITH ANTI-CANCER DRUGS” (Cellphire, Inc., priority 2023, published 2025).

Columns and labels:
HepG2 cells = experiment: receptor mediated binding between CPP or FPH and HepG2 cells with inhibitors / blocking mabs; type: cell-based, human; conditions: inhibitor / blocking mab tested, Table 7
Method: Receptor mediated binding between CPP or FPH with HepG2 cells was investigated by inhibiting either a platelet receptor or a HepG2 receptor. Pooled apheresis platelets were incubated with 50 μM CFDA-Se for 60 minutes at room temperature then acidified to pH of 6.6-6.8 with citric acid. CPP and FPH were then created as disclosed in Example 1 but without doxorubicin. Untreated HepG2 cells served as negative control groups. HepG2 cells were seeded at a density of 10^5 cells in a 12-well plate (NuncTM Cell-Culture Treated Multidishes, catalog no: 150628) After incubation for 24 hours, the original medium was […] hours with fresh 0.5% FBS DMEM (ATCC-formulated Eagle's Minimum Essential Medium, catalog No. 30-2003). To determine the effect of platelet receptor inhibition on the binding between CPP/FPH and HepG2 cells first both CPP and FPH were incubated with tirofiban to block the GpIIb/IIIa receptor. Then the HepG2 cells were supplemented with tirofiban treated CPP, tirofiban treated FPH, untreated CPP, or untreated FPH at an equivalent platelet count of 0.3×10^6 platelets/μl. The cells were then washed with cold PBS three times, harvested by a scraper, and then suspended in PBS. The fluorescence intensity was determined by flow cytometry with the FITC channel. Approximately 10,0000 events for each sample was measured to assess the surface binding between the HepG2 cells and tirofiban treated CPP or FPH. To determine the effect of HepG2 receptor inhibition on the binding between CPP/FPH and HepG2 cells, first HepG2 cells were treated with either anti-podoplanin blocking monoclonal antibody or phagocytosis (wortmannin) inhibitor for 30 minutes. Then the HepG2 cells were incubated with either CPP or FPH. The HepG2 cells were washed with cold PBS three times, harvested by a scraper, and then suspended in PBS. The fluorescence intensity was determined by flow cytometry with the FITC channel. Approximately 10,0000 events for each sample was measured to assess the surface binding between the HepG2 cells CPP or FPH. […]

platelets = experiment: effect of antiplatelet compounds on DOX-induced platelet aggregation; type: cell-based; conditions: reagent at recommended concentration
GPIIb/IIIa = GPIIb/IIIa (Homo sapiens, UniProt P05106+P08514); conditions: printed as recommended concentration; source PMID: 9700979; cited from earlier work
Sequence of GPIIb/IIIa (P08514 32-887 limits assumed): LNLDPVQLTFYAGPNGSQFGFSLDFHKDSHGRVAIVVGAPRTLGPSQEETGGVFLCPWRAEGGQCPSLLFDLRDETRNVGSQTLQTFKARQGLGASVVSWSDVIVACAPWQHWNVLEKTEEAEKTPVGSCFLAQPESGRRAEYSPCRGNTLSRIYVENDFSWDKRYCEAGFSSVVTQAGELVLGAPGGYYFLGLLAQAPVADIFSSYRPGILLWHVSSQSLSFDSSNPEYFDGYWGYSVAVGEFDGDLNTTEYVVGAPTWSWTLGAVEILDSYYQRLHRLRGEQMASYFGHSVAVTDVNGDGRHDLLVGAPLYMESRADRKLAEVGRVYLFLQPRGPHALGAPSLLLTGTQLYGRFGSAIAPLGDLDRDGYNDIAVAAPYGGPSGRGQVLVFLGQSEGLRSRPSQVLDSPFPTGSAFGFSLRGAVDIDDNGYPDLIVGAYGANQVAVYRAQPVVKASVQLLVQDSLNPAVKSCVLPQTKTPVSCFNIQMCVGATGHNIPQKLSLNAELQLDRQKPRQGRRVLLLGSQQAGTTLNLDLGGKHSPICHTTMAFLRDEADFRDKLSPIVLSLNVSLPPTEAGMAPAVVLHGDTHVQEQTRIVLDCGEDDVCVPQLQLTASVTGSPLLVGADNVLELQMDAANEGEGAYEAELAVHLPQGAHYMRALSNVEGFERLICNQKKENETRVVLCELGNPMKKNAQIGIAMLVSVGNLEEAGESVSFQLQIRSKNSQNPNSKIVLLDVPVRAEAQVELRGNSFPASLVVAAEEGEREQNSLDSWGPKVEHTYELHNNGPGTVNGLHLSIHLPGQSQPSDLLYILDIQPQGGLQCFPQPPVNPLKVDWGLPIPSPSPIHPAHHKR
Sequence of GPIIb/IIIa (P08514 891-1039 partner limits assumed): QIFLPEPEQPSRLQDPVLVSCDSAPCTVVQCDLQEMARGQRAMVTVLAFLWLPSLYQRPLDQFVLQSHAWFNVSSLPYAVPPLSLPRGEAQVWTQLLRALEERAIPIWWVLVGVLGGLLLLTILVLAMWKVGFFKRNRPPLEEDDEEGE
Sequence of GPIIb/IIIa (P05106 27-788): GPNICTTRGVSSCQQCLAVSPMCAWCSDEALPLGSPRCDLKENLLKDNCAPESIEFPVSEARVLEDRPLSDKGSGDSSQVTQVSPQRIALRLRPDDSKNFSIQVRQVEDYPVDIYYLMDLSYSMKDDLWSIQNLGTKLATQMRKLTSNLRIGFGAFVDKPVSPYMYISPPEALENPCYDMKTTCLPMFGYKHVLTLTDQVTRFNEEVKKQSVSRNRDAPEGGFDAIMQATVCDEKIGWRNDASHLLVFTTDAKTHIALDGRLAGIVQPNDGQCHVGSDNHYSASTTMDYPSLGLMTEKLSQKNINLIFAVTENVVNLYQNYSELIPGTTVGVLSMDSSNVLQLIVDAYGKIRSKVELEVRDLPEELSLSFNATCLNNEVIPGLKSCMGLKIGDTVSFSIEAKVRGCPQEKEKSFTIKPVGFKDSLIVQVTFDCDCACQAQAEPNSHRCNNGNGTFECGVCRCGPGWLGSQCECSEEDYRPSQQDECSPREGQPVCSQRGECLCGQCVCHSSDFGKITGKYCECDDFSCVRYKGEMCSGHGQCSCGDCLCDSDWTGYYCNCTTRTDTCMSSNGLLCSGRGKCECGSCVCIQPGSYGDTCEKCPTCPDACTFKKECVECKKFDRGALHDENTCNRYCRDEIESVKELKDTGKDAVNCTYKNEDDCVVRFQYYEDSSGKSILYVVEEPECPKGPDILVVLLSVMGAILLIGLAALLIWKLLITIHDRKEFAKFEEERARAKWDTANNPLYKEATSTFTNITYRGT

Row | SMILES | Max Platelet Count (Normalized to Untreated) (platelets; 0.5 mg/mL DOX) [%] | Max Platelet Count (Normalized to Untreated) (platelets; 1 mg/mL DOX) [%] | further results
1 | CN(C)CCCN1c2ccccc2Sc2ccc(Cl)cc21 [Chlorpromazine] | – | – | change of CPP/FPH binding to HepG2 cells in comparison to control (HepG2 cells): No Significance
2 | O=c1c(-c2ccc(O)cc2)coc2cc(O)cc(O)c12 [Genistein] | – | – | change of CPP/FPH binding to HepG2 cells in comparison to control (HepG2 cells): No Significance
3 | CC(=O)N[C@@H](CS)C(=O)O [N-Acetylcysteine] | – | – | Max Platelet Count (Normalized to Untreated) (platelets; 0.6 mM DOX): 73%
4 | CSCCNc1nc(SCCC(F)(F)F)nc2c1ncn2[C@@H]1O[C@H](COP(=O)(O)OP(=O)(O)C(Cl)(Cl)P(=O)(O)O)[C@@H](O)[C@H]1O [Cangrelor] | 47 | 26 | –
5 | CC1(C)CC(NC(=O)C[P+](c2ccccc2)(c2ccccc2)c2ccccc2)CC(C)(C)N1[O] [MitoTEMPO] | – | – | Max Platelet Count (Normalized to Untreated) (platelets; 1.2 mM DOX): 37%
6 | CCCCS(=O)(=O)N[C@@H](Cc1ccc(OCCCCC2CCNCC2)cc1)C(=O)O [Tirofiban] | – | – | Max Platelet Count (Normalized to Untreated) (platelets; 0.6 mM DOX): 73%; change of CPP/FPH binding to HepG2 cells in comparison to control (HepG2 cells): Significance
7 | Cl.Cl.Cl.N=C(N)c1ccc(N2CCN(C3CCN(CC(=O)O)CC3)CC2)cc1 [GR144053] | 83 | 42 | IC50 (GPIIb/IIIa): 37 nM
8 | CC(=O)Oc1ccccc1C(=O)O [Aspirin (ASA), Aspirin] | 52 | 15 | –
9 | Nc1c(S(=O)(=O)O)cc(Nc2ccc(Nc3ccccc3)c(S(=O)(=O)O)c2)c2c1C(=O)c1ccccc1C2=O [PSB 0739] | 26 | 18 | –
10 | CSc1nc(N)c2ncn([C@@H]3O[C@H](COP(=O)(O)OP(=O)(O)O)[C@@H](O)[C@H]3O)c2n1 [MeSADP] | 33 | 10 | –
11 | COC(=O)/C=C1/SC(=NC(=O)c2ccc(Cl)cc2Cl)N(c2ccc(Cl)cc2)C1=O [FR171113] | 51 | 16 | –
